Data taken from patent US11498853B2, “Water with switchable ionic strength” (QUEEN'S UNIVERSITY AT KINGSTON, priority 2010, dated 2022).
Where “and” joins values, the source holds several entries; their conditions need not be identical. Identical values can stand only once. Like-named read-outs stand apart in the source and are kept apart here.

Tests used:
[1] = Separation of THF from aqueous phase and retention of additive on switching with CO2, by 1H NMR; assay type: physicochemical
Description: (§1) The volumes of each phase were recorded.
The graduated cylinders were capped with rubber septa. […] A second narrow gauge steel tube was provided to vent the gaseous phase.
as §1

[2] = Reversible protonation of amine additives in H2O monitored by conductivity; assay type: physicochemical
Description: 1:1 w/w H2O and THEED was used because a 1:1 v/v solution was too viscous to pour accurately. A trigger gas chosen from CO2, air or nitrogen was bubbled at identical flow rates through the solution via a narrow gauge steel tube and the conductivity of the solution was measured periodically using a Jenway 470 Conductivity Meter (Bibby Scientific, NJ, US) having a cell constant of 1.02 cm^−1.
The deprotonation reactions of the ionic solutions of additives in water were monitored in a similar manner, and the conductivity plot is shown in FIG. 8.
1:1 v/v solutions of the various additives and distilled, deionised water were prepared in six dram glass vials and transferred to a fritted glass apparatus which acted as a reaction vessel. The fritted glass apparatus consisted of a long narrow glass tube leading to a fine glass frit having a diameter of approximately 4 cm. The other end of the glass frit was connected to a cylindrical glass tube which held the solution of the additive during contacting with the trigger gas. This apparatus allowed a multiple source of trigger gas bubbles to contact the solution, compared to the single point source of Example 5.
A trigger gas chosen from CO2, air or nitrogen was bubbled through the solution via the glass frit at a flow rate of 110 ml min^−1 as measured by a J&W Scientific ADM 2000 Intelligent Flowmeter (CA, USA). For each conductivity measurement, the solution was transferred back to a six dram vial, cooled to 298 K and measured in triplicate. Conductivity measurements were performed using a Jenway 470 Conductivity Meter (Bibby Scientific, NJ, US) having a cell constant of 1.02 cm^−1.

[3] = Degree of protonation/deprotonation of amine additives in D2O by 1H NMR; conditions: 0.1 M in D2O; for degree of protonation by CO2: room temperature
Description: In order to establish the chemical shifts of the protonated bases, molar equivalents of several strong acids, including HCl and HNO3, were added to separate solutions of the amines dissolved in D2O. ^1H NMR spectra were acquired on a Bruker AV-400 NMR spectrometer at 400.3 MHz for three replicate solutions of each amine. An average value of each chemical shift for each protonated base was calculated along with standard deviations. […] The ^1H NMR chemical shifts of the unprotonated amines were also measured.
The amine was dissolved in D2O in an NMR tube and sealed with a rubber septa. The spectrum was then acquired. Subsequently, two narrow gauge steel needles were inserted and gas was gently bubbled through one of them into the solution at approximately 4-5 bubbles per second. The second needle served as a vent for the gaseous phase.
Firstly CO2 was bubbled through the solution for the required length of time and then the spectrum was re-acquired. This process was repeated. The % protonation of the amine was determined from the observed chemical shifts by determining the amount of movement of the peaks from the normal position for the unprotonated amine towards the position expected for the fully protonated amine.
Nitrogen gas was flushed through the solution at 75° C.
In order to establish the chemical shifts of the protonated bases, molar equivalents of several strong acids, including HCl and HNO3, were added to separate solutions of the tetraamine dissolved in D2O. ^1H NMR spectra were acquired on a Bruker AV-400 NMR spectrometer at 400.3 MHz for three replicate solutions of the amine. An average value of each chemical shift for each protonated base was calculated along with standard deviations. […] The ^1H NMR chemical shifts of the unprotonated amine were also measured. […]

[4] = Miscibility of diamines and triamines with water in presence and absence of CO2; assay type: physicochemical; conditions: 5:1 w/w water and liquid additive; for Miscibility with water, After addition of CO2: CO2 90 min; for Miscibility with water, Before addition of CO2: room temperature
Description: A 5:1 w/w solution of water and the liquid additive (total volume 5 m) were mixed together in a glass vial at room temperature. Whether the mixture formed one or two liquid phases was visually observed. Then CO2 was bubbled through the mixture via a single narrow gauge steel needle at a flow rate of ˜5 ml min^−1 for 90 min. Whether the mixture formed one or two phases was visually observed.

[5] = Salting out THF from water using secondary amine additives, 1H NMR; assay type: physicochemical; conditions: 1.60 molal, 1:1 w/w THF:water, 30 minutes CO2
Description: N-tert-Butylethanolamine and N-ter-butymethylamine were investigated as additives for switchable ionic strength solutions. […] The volumes of each phase were recorded. […] The recombining of the phases when N-tert-butymethylamine was used as an additive was not successful at 30 min but was achieved by 2 h at a higher Ar flow rate of 15 mL/min. THF was added afterwards to replace the amount of THF being evaporated during the procedure.

[6] = Expulsion of THF from water and removal of additive from the aqueous phase; assay type: physicochemical; conditions: for additive removed from the aqueous phase after N2 treatment: separated aqueous phase, N2 90 minutes, 60° C.
Description: 1.50 g H2O, 1.50 g THF, and 0.30 g N,N,N′N′-tetraethyl-1,4-diaminobutane (TEDAB) were mixed together in a graduated cylinder to generate a single phase solution. […] A small stir bar was added to the solution and the cylinder was capped with a rubber septa. The following procedure was run in triplicate with a new sample (of the same contents shown above) each time.
A long, narrow gauge needle was inserted through the septa into the solution. […] CO2 was bubbled through the solution a flow rate of about 5 ml/min for 45 minutes with stirring until a 2nd phase creams out on top of the aqueous phase. The CO2 bubbling was stopped and the needles withdrawn. The cylinder was immersed in a hot water bath for several seconds to facilitate the separation of the liquid phases. Both phases were clear and yellow in colour.
The organic phase was decanted off giving a mass of 1.253 g (density=0.84 g/m).
A 39.1 mg sample of the organic phase was placed in an NMR tube with deuterated acetonitrile and 50.2 mg ethyl acetate to act as an internal standard. A 66.2 mg sample of the aqueous phase was placed in a 2nd NMR tube with deuterated acetonitrile with 22.3 mg ethyl acetate to act as an internal standard. A ^1H NMR spectra was acquired and knowing the corresponding amount of ethyl acetate in each sample the resulting amounts of THF in the aqueous sample and additive in the organic sample can be calculated. Knowing the mass, volume, and density of each layer, the total amount of THF or additive in a respective layer can be calculated.
1.943 g (1.90 ml) of the aqueous phase was returned to the same graduated cylinder. The needles and septa were put back into the cylinder and the cylinder was immersed in a 60° C., water bath. N2 was introduced in the same fashion as CO2 preformed previously and the N2 was bubbled through the solution for 90 minutes where a deep yellow organic phase creams out of the aqueous phase.
A 37.9 mg sample of the aqueous phase was taken up in an NMR tube with deuterated acetonitrile and 41.5 mg ethyl acetate to act as an internal standard.

[7] = Solvent switching of diamidine/water system, 1H NMR; assay type: physicochemical; conditions: 0.80 molal, 30 minutes CO2
Description: The diamidine was investigated as additive for switchable ionic strength solutions. […] The volumes of each phase were recorded.

[8] = Zeta potential of suspended clay fines in switchable water; assay type: physicochemical
Description: (§2) Clay fines were weighed and placed into individual vials (0.025 g, Ward's Natural Science Establishment). Kaolinite and montmorilonite were used as received, but as illite day was ground into a powder using a motar and pestle. Solutions containing additives were made with deionized water (18.2 MΩ/cm, Millipore) and 10 ml was added to the clay fines. A suspension was created using a vortex mixer and subsequently dispensed into a folded capillary cell. The zeta potential was measured using a Malvern Zetasizer instrument. The errors reported on the zeta potential values were the standard deviations of the zeta potential peaks measured.
(§3) Unless specified, all carbon dioxide treatments were conducted with the aqueous solutions prior to addition to day fines. For applicable measurements, ultra pure carbon dioxide (Supercritical CO2 Chromatographic Grade, Paxair) was bubbled through the solutions using a syringe.

[9] = as above; assay type: physicochemical; conditions: Kaolinite
Description: as §2, §3
Another experiment was performed in which CO2 was bubbled through a 1 mM aqueous solution of TMDAB that already contained clay fines (a method referred to as “switching in situ”).

[10] = 0.80 molal
Description: The methylated spermine was investigated as additive for switchable ionic strength solutions. To measure the extent of THF being forced out of an aqueous phase by an increase in ionic strength, and the amounts of amine, which remained in the aqueous phase, 1:1 w/w solutions of THF and water were prepared in graduated cylinders. The appropriate mass of amine additive to result in a 0.80 molal solution was added and the cylinders were capped with rubber septa. […] The volumes of each phase were recorded. Aliquots of the non-aqueous and aqueous layers were taken and dissolved in d3-acetonitrile in NMR tubes. A known amount of ethyl acetate was added to each NMR tube as an internal standard. ^1H NMR spectra were acquired and through integration of the ethyl acetate standard, a concentration of THF or additive was calculated and scaled up to reflect the total volume of the aqueous or non-aqueous phase giving a percentage of the compound being forced out or retained. Then argon was bubbled through the solution while heating to 50° C. until the two phases recombined (15 to 60 min). The whole switching process (30 min CO2, sample take, then another 30 min of Ar) was repeated.

[11] = 0.80 molal additive, 1:1 w/w THF:H2O, 30 min CO2, in aqueous phase
[12] = 1:1 v/v additive:water, 25° C., glass frit
[13] = 1:1 v/v, N2 at 80° C., glass frit

In the case of `CN(C)CCCCN(C)C` [TMDAB, N, N, N′, N′-tetramethyl-1,4-diaminobutane], the “% Additive Retained” value [1, 11] is reported as 99.2 ± 0.4%, the “% Additive Retained” value ([1]; THF:H2O:Additive 3:3:1 w/w/w) is reported as 87.1 ± 2.1% and the “% Additive Retained” value ([1]; THF:H2O:Additive 5:5:1 w/w/w) is reported as 99.8% and 99.6 ± 0.1%. For the same compound, the “% Additive Retained” value ([1]; THF:H2O:Additive 10:10:1 w/w/w) was 99.4 ± 0.1%, the “% Additive Retained” value ([1]; THF:H2O:Additive 15:15:1 w/w/w) was 98.4 ± 0.4% and the reduction of conductivity ([2]; 1:1 v/v H2O:amine, 90 minutes, 80° C., N2 through a glass frit) was “approximately 95%”. The “rate of conductivity increase on CO2 bubbling” value [2, 12] was “highest rate of conductivity increase” and the “rate of conductivity decrease on N2 flushing” value [2, 13] was “highest”.
With `OCCN(CCO)CCN(CCO)CCO` [THEED, N, N, N′, N′-tetrakis(2-hydroxyethyl) ethylenediamine] the degree of deprotonation ([3]; N2 bubbling at 75° C., 2 hours (120 minutes)) was 98% and the “degree of protonation by CO2” value ([3]; by 10 minutes) was 49%.
In the case of `CN(C)Cc1cc(CN(C)C)cc(CN(C)C)c1` [1,3,5-C6H3(CH2NMe2)3, N,N,N′,N′,N″,N″-1,3,5-benzenetrimethanamine], the “Miscibility with water, After addition of CO2” value [4] is reported as “miscible” and the “Miscibility with water, Before addition of CO2” value [4] is reported as “miscible”.
In the case of `CNC(C)(C)C` [N-tert-butymethylamine], the “Additive retained in H2O” value [5] is reported as 99.75 ± 0.04%.
In the case of `CCN(CC)CCCCN(CC)CC` [TEDAB, N, N, N′, N′-tetraethyl-1,4-diaminobutane], the “Miscibility with water, After addition of CO2” value [4] is reported as “miscible”, the “Miscibility with water, Before addition of CO2” value [4] is reported as “immiscible” and the “additive residing in the aqueous phase after CO2 treatment” value ([6]; 1.50 g H2O, 1.50 g THF, 0.30 g additive, CO2 45 minutes) is reported as 91.1±3.7%. The “additive removed from the aqueous phase after N2 treatment” value [6] was 49.3±6.3%.
With `C/C(=N\CCCC/N=C(\C)N(C)C)N(C)C` [DIAC, N,N-(butane-1,4-diyl)bis(N,N-dimethylacetimidamide)] the “additive retained in the aqueous phase” value [7] was 99.5%.
With `CC(O)CN(CCCN(C)C)CCCN(C)C` (stereo not drawn) [DMAPAP] the “% Additive Retained” value [1, 11] was 98.8 ± 0.4%, the “% Additive Retained” value ([1]; THF:H2O:Additive 3:3:1 w/w/w) was 87.1 ± 7.3% and the “% Additive Retained” value ([1]; THF:H2O:Additive 5:5:1 w/w/w) was 98.4 ± 0.4%. The “% Additive Retained” value ([1]; THF:H2O:Additive 10:10:1 w/w/w) was 96.0 ± 0.8%, the “% Additive Retained” value ([1]; THF:H2O:Additive 15:15:1 w/w/w) was 94.4 ± 1.1% and the “Zeta Potential” value ([8]; Illite, 0.8 molal additive) was −19.1 ± 3.92 mV. For the same compound, the “Zeta Potential” value ([8]; Illite, 0.8 molal additive + 1 h CO2) was −1.87 mV, the “Zeta Potential” value ([8]; Montmorillonite, 0.8 molal additive) was −16.8 ± 4.64 mV and the “Zeta Potential” value ([8]; Montmorillonite, 0.8 molal additive + 1 h CO2) was −2.99 mV. The “Zeta Potential” value ([9]; 0.8 molal additive) was −24.3 ± 2.29 mV, the “Zeta Potential” value ([9]; 0.8 molal additive + 1 h CO2) was −3.99 mV and the “conductivity on CO2 bubbling” value [2, 12] was “lower conductivities than TMDAB”.
For `CN(C)CCCN(C)CCCCN(C)CCCN(C)C` [MeSpe, N^1,N^1′-(butane-1,4-diyl)bis(N^1,N^2,N^3-trimethylpropane-1,3-diamine)], the “Additive retained in THF” value ([10]; 30 min CO2, run 1) was 99.85%, the “Additive retained in THF” value ([10]; 30 min CO2, run 2) was 99.79% and the “degree of protonation by CO2” value [3] was 93%.
For `CC(C)(C)NCCO` [N-tert-butylethanolamine], the “Additive retained in H2O” value [5] was 99.84 ± 0.04%.
For `CN(C)CC1CC(CN(C)C)CC(CN(C)C)C1` (stereo not drawn) [1,3,5-cycloC6H9(CH2NMe2)3, 1,1′,1″-(cyclohexane-1,3,5-triyl)tris(N,N,-dimethylmethanamine)], the “Miscibility with water, After addition of CO2” value [4] was “miscible” and the “Miscibility with water, Before addition of CO2” value [4] was “immiscible”.
In the case of `CCCN(CCC)CCCCN(CCC)CCC` [Pr2NCH2CH2CH2CH2NPr2, N,N,N′,N′-tetrapropyl-1,4-diaminobutane], the “Miscibility with water, After addition of CO2” value [4] is reported as “immiscible” and the “Miscibility with water, Before addition of CO2” value [4] is reported as “immiscible”.
In the case of `CCCN(CC)CCCCN(CC)CCC` [PrEtNCH2CH2CH2CH2NPrEt, N,N′-diethyl-N,N′-dipropyl-1,4-diaminobutane], the “Miscibility with water, After addition of CO2” value [4] is reported as “miscible”, the “Miscibility with water, Before addition of CO2” value [4] is reported as “immiscible” and the “additive removed from the aqueous phase after N2 treatment” value [6] is reported as 81%.
In the case of `CN(C)CCN(C)CCN(C)CCN(C)C` [HMTETA, 1,1,4,7,10,10-hexamethyl triethylenetetramine], the “% Additive Retained” value [1, 11] is reported as 99.3 ± 0.4%, the “% Additive Retained” value ([1]; THF:H2O:Additive 3:3:1 w/w/w) is reported as 95.6 ± 1.5% and the “% Additive Retained” value ([1]; THF:H2O:Additive 5:5:1 w/w/w) is reported as 98.4 ± 1.2%. For the same compound, the “% Additive Retained” value ([1]; THF:H2O:Additive 10:10:1 w/w/w) was 98.0 ± 1.0%, the “% Additive Retained” value ([1]; THF:H2O:Additive 15:15:1 w/w/w) was 98.2 ± 0.3% and the “conductivity on CO2 bubbling” value [2, 12] was “lower conductivities than TMDAB”. The “conductivity of ionic form after 20 minutes of N2” value [2, 13] was “close to zero”.
